From patent US6369109B1, “Betulinic acid and derivatives thereof useful for the treatment of neuroectodermal tumor” (Deutsches Krebsforschungszentrum Stiftung des Offentlichen …, priority 1998, dated 2002)

Key:
[1] = system: SH-EP neuroblastoma cells; assay: Specific apoptosis, FACS analysis of propidium iodide-stained nuclei; assay type: cell-based, human; conditions: 10 μg/ml antibody fragments 1 h before drug; 10 μg/ml betulinic acid, 50 μg/ml VP-16, 10 μg/ml cisplatinum, 0.5 μg/ml doxorubicin, 72 h; FIG. 3B
Description: Quantification of DNA fragmentation was performed by FACS analysis of propidium iodide stained nuclei as described in Nicoletti et al, 1991, J. Immunol. Methods. 139: 271-279. Cells were analyzed for DNA content by flow. cytometry (FACScan, Becton Dickinson, Heidelberg, Germany) using CELLQuest software. Early apoptotic changes were identified by staining with biotinylated annexin V (Bender Med Systems, Vienna, Austria) following the manufacturer's instructions. Annexin V binds to exposed phosphatidylserine on the surface of apoptotic cells. Koopman et al, 1994, Blood. 84:1415-1420. Cells were analyzed by flow cytometry (FAC-Scan. Becton Dickinson) using CELLQuest software.
Cells were treated with 10 μg/ml betulinic acid for 72 h. Apoptosis was assessed by FACS analysis of propidium iodide-stained nuclei. Percentage of specific apoptosis was calculated as follows: experimental apoptosis (%) −spontaneous apoptosis in medium (%)/[100%−spontaneous apoptosis in medium (%)]×100%. […]
Cells were incubated for indicated times with doxorubicin, betulinic acid or anti-APO-1 and harvested by trypsinization using 0.05% trypsin and 0.02% EDTA without Ca^2+and Mg^2+(Life Technologies, Inc.). Quantification of DNA fragmentation was performed by FACS analysis of propidium iodide stained nuclei as previously described in Nicoletti et al., J. ImmunoL Methods 139:271-279, using CELLQuest software (Becton Dickinson, Heidelberg, Germany).
(§1) SHEP cells transfected with Bcl-2 or BCl-XL or a neomycin resistance vector only (Neo) were treated with 0.5 μg/ml Doxorubicin or 10 μg/ml Betulinic acid for 48 h (A) or 24 h (B and C). Cells transfected with a neomycin resistance vector only (Neo) were treated in the presence or absence of 50 μm BA or 60 μm zVAD-fmk. Nuclear apoptosis was determined by FACS analysis or propidium iodide-stained DNA content in intact cells (A) or in a CFS incubating isolated nuclei with mitochondria from cells treated with Doxo or betulinic acid (C). ΔΨm was determined by staining cells with the potential-sensitive fluorochrome DiOC6(3) (B).

[2] = system: mitochondria isolated from SHEP cells; assay: Mitochondrial membrane potential of isolated mitochondria (DiOC6(3)); assay type: biochemical, human; conditions: mitochondria from wild type or vector-only SHEP cells; 10 μg/ml betulinic acid, 30 min; FIG. 7, 12D
Description: For isolation of mitochondria, cells (3×10^5 per sample) were washed twice with ice-cold PBS and resuspended with five volumes of buffer A (50 mM Tris, 1 mM EGTA, 5 mM 2-mercaproethanol, 0.2% BSA, 10 mM KH2PO4, pH 7.6, 0.4 M sucrose) and allowed to swell on ice for 20 min. Cells were homogenized with 30 strokes of a Teflon homogenizer and centrifuged at 10000 g for 10 min at 4° C. The resulting pellets were resuspended in buffer B (10 mM KH2PO4, pH 7.2, […] mannitol, 0.1% BSA). Mitochondria were separated by sucrose gradient (lower layer: 1.6 M sucrose, 10 mM KH2PO4, pH 7.5, 0.1% BSA; upper layer: 1.2 M sucrose, 10 mM KH2PO4, pH 7.5, 0.1% BSA). Interphases containing mitochondria were washed with buffer B at 18000 g for 10 min at 4° C. and the resulting mitochondrial pellets were resuspended in buffer B. For preparation of cytosolic extracts, cells (1×10^8 per sample) were washed twice with ice-cold PBS, resuspended with one volume of buffer A and allowed to swell on ice for 20 min. Cells were homogenized with 30 strokes of a Dounce homogenizer and centrifuged at 15000×g for 15 min ax 4° C. The protein concentration of mitochondria or cytosolic extracts was determined by Bradford method (Bio-Rad). For isolation of nuclei, cells were washed twice in ice-cold PBS, resuspended in 10 volumes of buffer C (10 mM PIPES, pH 7.4, 10 mM KCl, 2 mM MgCl2, 1 mM DDT, 1 mM PMSF, 10 μM cytochalasin B), allowed to swell on ice for 20 min and homogenized using a Teflon homogenizer. Homogenates were layered over 30% sucrose in buffer C and centrifuged at 800 g for 10 min. The resulting nuclear pellets were resuspended in buffer C and washed three times. Nuclei were scored at −80° C. in aliquots of 10^8 nuclei/ml until required. AIF-containing mitochondrial supernatant was prepared as described in Susin et aL, 1997, J. Exp. Med. 186, 5-37 and Susin et al., 1996, J. Exp. Med. 184, 1331-41.
Mitochondria (5×10^5/ml) were treated with 10 μg/ml betulinic acid for 30 min, incubated with 3,3′-dihexyloxacarbocyanide iodide (DiOC6(3), 40 nM, Molecular Probes, Inc., Eugene, Oreg.) for 15 min at 37° C. and analyzed on a flow cytometer (FACS Vantage, Becton Dickinson). As a control, cells were treated with the uncoupling agent carbonyl cyanide m-chlorophenylhydrazone (mCICCP, 200 μM, Sigma).

[3] = system: isolated nuclei with mitochondria from SHEP cells; assay: Cell-free system of apoptosis: nuclear fragmentation of isolated nuclei; assay type: biochemical, human; conditions: for nuclear DNA fragmentation, mitochondria plus nuclei plus drug: Neo control mitochondria, 0.1-10 μg/ml betulinic acid or 5 mM atractyloside, 6 h, FIG. 8A, 8B
Description: (§2) For determination of nuclear fragmentation, nuclei (10^3/μl) were incubated with mitochondria (1 μg/μl) in buffer D (10 mM HEPES, pH 7.4, 50 mM NaCl, 2 mM MgCl2, 5 mM EGTA, 1 mM DDT, 2 mM ATP, 10 mM phosphocreatine, 50 μg/ml creatine kinase, 10 μM cytochalasin B) for 2 h at 37° C. Nuclei were stained with propidium iodide ([…]) and analyzed by flow cytometry. For determination of caspase activation, cytosolic extracts (2 μg/μl) were incubated with mitochondria (1 μg/μl), cytochrome c (0.1-100 μM) or AIF-containing mitochondrial supernatant (0.5 μg/μl) in buffer D for 2 h at 37° C. Partially purified AIF (cytochrome c-free) was prepared as previously described (0.5 mg/ml, Susin et al., 1997, J. Exp. Med. 186, 5-37; Susin et al., 1996, J. Exp. Med. 184, 1331-41). Proteins were separated by 15% SDS-PAGE and Western blot analysis was performed as described above.
Mitochondria isolated from SHEP cells, transfected with bcl-2 or bcl-XL or a neomycin resistance vector only, were incubated for 6 h with nuclei and 0.1-10 μg/ml betulinic acid (FIG. 8A) or 5 mM atractyloside (FIG. 8B) in the presence or absence of 50 μM bongkrekic acid or 60 μMZ-VAD-fnk. Nuclei incubated with either mitochondria from vector only cells or with betulinic acid were used as control. Nuclear apoptosis was determined by FACS analysis of propidium iodide stained DNA content.
SHEP cells transfected with bcl-2 or bcl-XL or a neomycin resistance vector only were treated with 10 μg/ml betulinic acid or 5 mM atractyloside for 6-24 h (FIG. 8C). Mitochondria were isolated and incubated with nuclei in the presence or absence of 50 μM bongkrekic acid or 60 μMZ-VAD-fmk. Nuclei incubated with either mitochondria front vector only cells or with betulinic acid were used as control. Nuclear apoptosis was determined by FACS analysis of propidium iodide stained DNA content.
Mitochondria isolated from SHEP cells transfected with bcl-2, Bcl-XL or a neomycin resistance vector only were treated with 10 μg/ml betulinic acid or 5 mM atractyloside for 0.5 h in the presence or absence of 50 μM bongkrekic acid or 60 μM zVAD-fmk. Mitochondrial supernatants obtained by high speed centrifugation were incubated with nuclei for 2 h at 37° C. Nuclei incubated with supernatants of untreated mitochondria were used as control.. Nuclear apoptosis was determined by FACS analysis of propidium iodide stained DNA content.
as §2, with “cytometry (Susin et al., 1997 Exp. Cell Res. 236:397-403).” for “cytometry.”, “(10” for “(0.1-100”, “C.” for “C. Partially purified AIF (cytochrome c-free) was prepared as previously described (0.5 mg/ml, Susin et al., 1997, J. Exp. Med. 186, 5-37; Susin et al., 1996, J. Exp. Med. 184, 1331-41).”, “before.” for “above.”
as §1

[4] = system: caspase-3, caspase-8 and PARP in cytosolic extracts of SHEP cells; assay: Cell-free system of apoptosis: cleavage of caspases in cytosolic extracts by mitochondria; assay type: biochemical, human
Description: as §2, with “above. To confirm equal loading of mitochondrial protein, all Western blots were also developed with an antibody directed against a 60 kDa mitochondrial antigen (data not shown).” for “above.”
SHEP cells transfected with bcl-2 or Bcl-XL or a neomycin resistance vector only were treated with 10 μg/ml betulinic acid for 16 h. Mitochondria were isolated and incubated with cytosolic extracts for 6 h in the presence or absence of 60 μM zVAD-fmk (left panel, cells). Alternatively, mitochondria isolated from untreated cells were incubated with 10 μg/ml betulinic acid or 5 mM atractyloside together with cytosolic extracts for 6 h in the presence or absence of 60 μMZ-VAD-fmk (right panel, mitos, Atra). Cytosolic extracts incubated with mitochondria isolated from untreated cells or with untreated mitochondria were used as control. 40 μg protein per lane isolated front cell lysates were separated by 15% SDS-PAGE. Immunodetection of caspases-3, -8 and PARP protein was performed by mouse anti-caspase-3 mAb, mouse anti-caspase-8 mAb, rabbit anti-PARP polyclonal antibody and ECL.
SHEP cells treated with 10 μg/ml betulinic acid for indicated times. Mitochondria were isolated and incubated with cytosolic extracts for 6 h. Western blot analysis was performed as described above.
Mitochondria isolated from SHEP cells transfected with bcl-2 or Bcl-XL or a neomycrn resistance vector only were treated with 10 μg/ml betulinic acid or 5 mM atractyloside for 0.5 h in the presence or absence of 50 μM bongkrekic acid or 60 μM zVAD-fmk. Mitochondrial supernatants obtained by high speed centrifugation were incubated with cytosolic extracts for 6 h at 37° C. Cytosolic extracts incubated with supernatants of untreated mitochondria were used as control. Western blot analysis was performed as described for FIG. 9A.
as §2, with “cytometry (Susin et al., 1997 Exp. Cell Res. 236:397-403).” for “cytometry.”, “(10” for “(0.1-100”, “C.” for “C. Partially purified AIF (cytochrome c-free) was prepared as previously described (0.5 mg/ml, Susin et al., 1997, J. Exp. Med. 186, 5-37; Susin et al., 1996, J. Exp. Med. 184, 1331-41).”, “before.” for “above.”
SHEP cells transfected with Bcl-2 or Bcl-XL or a neomycin resistance vector only (Neo) were treated (Lanes+) with 0.5 μg/ml Doxo or 10 μg/ml Bet A for 16 h. Mitochondria were isolated and incubated with cytosolic extracts for 6 h. in the presence or absence of 60 μm Z-VAD.fmk. Western blot analysis was performed as described in FIG. 14A.

| Compound | effect of CD95 blockage by F(ab′)2 anti-APO-1 on drug-induced apoptosis [1] | Δψm of isolated mitochondria [2] | nuclear DNA fragmentation, mitochondria plus nuclei plus drug [3] | DNA fragmentation by supernatants from treated mitochondria ([3]; 10 μg/ml betulinic acid or 5 mM atractyloside 0.5 h, supernatant with nuclei 2 h, FIG. 10B) | caspase cleavage in cytosolic extracts by supernatants from treated mitochondria ([4]; 10 μg/ml betulinic acid or 5 mM atractyloside 0.5 h, extracts 6 h, FIG. 10A) | caspase cleavage in cytosolic extracts by treated isolated mitochondria ([4]; 10 μg/ml betulinic acid or 5 mM atractyloside, 6 h, FIG. 9A) |
| --- | --- | --- | --- | --- | --- | --- |
| N.N.[Cl][Pt][Cl] [cisplatinum] | markedly reduced | did not induce mitochondrial perturbations | No DNA fragmentation was observed | – | – | – |
| C=C1[C@@H]2CC[C@H]3[C@]4(C)C[C@H](O[C@@H]5O[C@H](CO)[C@@H](OS(=O)(=O)O)[C@H](OS(=O)(=O)O)[C@H]5OC(=O)CC(C)C)C[C@@H](C(=O)O)[C@H]4CC[C@]3(C2)[C@H]1O [atractyloside] | – | – | had the same effect as betulinic acid | caspase activation and nuclear fragmentation were observed | caspase activation and nuclear fragmentation were observed | led to activation of caspases |
| COc1cc([C@@H]2c3cc4c(cc3[C@@H](O[C@@H]3O[C@@H]5CO[C@@H](C)O[C@H]5[C@H](O)[C@H]3O)[C@H]3COC(=O)[C@H]23)OCO4)cc(OC)c1O [VP-16, etoposide] | markedly reduced | did not induce mitochondrial perturbations | No DNA fragmentation was observed | – | – | – |
